Where two headings read alike, the source gives them in different places.

We go through seven compounds from PMC6002460, “Pharmacological evaluation of new constituents of “Spice”: synthetic cannabinoids based on indole, indazole, benzimidazole and carbazole scaffolds” (Forensic Toxicology, 2018).

The target of assay [1] is T1, human CB1 receptor (Homo sapiens, UniProt P21554).
T1 construct: expressed in transfected cells; host or cells: CHO cells (membrane preparations)
Also noted: method as in PMID 27429655. The following applies: previous study; cited from earlier work.

Assay [2] concerns the target T2, human GPR55 (Homo sapiens, UniProt Q9Y2T6).
T2 construct: host or cells: CHO cells
The following applies: previous study; cited from earlier work.

Assay [3] addresses T1, human CB1 receptor. Briefly: biochemical. Type of assay: binding. The following applies: [3H]CP55,940 0.1 nM, CHO cell membranes; read-out: Ki ± SEM Human CB1.
The target in assay [4] is T3, human CB2 receptor (Homo sapiens, UniProt P34972).
T3 construct: expressed in transfected cells; host or cells: CHO cells (membrane preparations)
The assay is described as follows: biochemical. Type of assay: binding. Conditions: [3H]CP55,940 0.1 nM, CHO cell membranes; read-out: Ki ± SEM Human CB2.

Assay [5] concerns the target T1, human CB1 receptor. Briefly: cAMP accumulation assay, CHO cells stably expressing CB1. Type of assay: cell-based. As for the experimental part:
(§1) cAMP accumulation assays were performed also as previously described. Briefly, CHO cells stably expressing the respective human CB receptor subtype CB1 or CB2 were seeded overnight. […] After incubation for 15 min the buffer was removed, and the cells were lyzed. The amount of cAMP was determined in a radioligand binding assay by incubating 50 µL of the cell lysate with 3 nM [^3H]cAMP in the presence of protein preparations from bovine adrenal glands (cAMP binding protein). Bound and unbound radioligand were separated by rapid filtration through GF/B filters, and radioactivity was determined by liquid scintillation counting. To test for antagonistic activity, test compounds were added to Hank’s buffered salt solution (HBSS) containing 10% dimethyl sulfoxide (DMSO), 10 min after the application of Ro-20-1724, and the mixture was incubated for 20 min at 37 °C.
(§2) As a next step, we investigated the compounds in cAMP accumulation assays, to obtain information on their functionality (Fig. 3). CB receptors are Gi protein-coupled and thus reduce the levels of cAMP in the cells upon activation.

Assay [6] has as its target T3, human CB2 receptor. Briefly: cAMP accumulation assay, CHO cells stably expressing CB2. Type of assay: cell-based. How it is done:
as §1, §2

Assay [7] deals with T2, human GPR55. Briefly: β-Arrestin PathHunter assay, recombinant CHO cells expressing GPR55. Type of assay: cell-based. The following applies: for Human GPR55 % inhibition: antagonist mode versus LPI 1 µM; for Human GPR55 % inhibition / Human GPR55 % activation: value in parentheses.
For a further assay, the target named is T4, human GPR18 (Homo sapiens, UniProt Q14330).
T4 construct: host or cells: CHO cells
T4 sequence (Q14330 1-331): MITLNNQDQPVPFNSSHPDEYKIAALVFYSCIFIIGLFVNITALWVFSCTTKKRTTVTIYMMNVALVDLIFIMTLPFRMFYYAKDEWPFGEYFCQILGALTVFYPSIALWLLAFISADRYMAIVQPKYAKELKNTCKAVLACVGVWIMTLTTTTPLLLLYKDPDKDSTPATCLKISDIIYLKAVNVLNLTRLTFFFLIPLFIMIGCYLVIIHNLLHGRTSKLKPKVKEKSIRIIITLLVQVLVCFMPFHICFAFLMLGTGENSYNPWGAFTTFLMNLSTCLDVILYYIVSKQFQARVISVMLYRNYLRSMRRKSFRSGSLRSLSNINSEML
Briefly: β-Arrestin PathHunter assay, recombinant CHO cells expressing GPR18. Type of assay: cell-based. Conditions: for Human GPR18 % activation / Human GPR18 % inhibition: value in parentheses.

Assay [8] addresses CB1 receptor. The following applies: membrane potential assay, cited from earlier work.
Assay [9] has as its target CB2 receptor. The following applies: membrane potential assay, cited from earlier work.
The next assay concerns rats. Set-up: method as in PMID 27421060. Conditions: cited from earlier work.
In assay [10] the target is CB1 receptor. Also noted: method as in Wiley et al. [41]. The following applies: versus 0.62 nM [3H]CP55,940; ref Wiley et al. [41]; cited from earlier work.
Assay [11] has as its target CB2 receptor. Also noted: method as in Wiley et al. [41]. Conditions: versus 0.62 nM [3H]CP55,940; ref Wiley et al. [41]; cited from earlier work.
Assay [12] concerns the target CB1 receptor. Also noted: method as in Bowden et al. [43]. Conditions: HTRF cAMP accumulation; ref Bowden et al. [43]; cited from earlier work.
Assay [13] concerns the target CB2 receptor. Set-up: method as in Bowden et al. [43]. Conditions: HTRF cAMP accumulation; ref Bowden et al. [43]; cited from earlier work. For orientation: In TR-FRET formats the signal depends on donor and acceptor labels being close together.
On the set-up of assay [14]: method as in Wiley et al. [41]. The following applies: receptor subtype not stated; ref Wiley et al. [41]; read-out: EC50 in [35S]GTPγS assays; cited from earlier work. On the technique in general: GTPγS resists hydrolysis and so accumulates on activated G proteins.
The mark [15] stands for this setting: compound at 10 µM, normalized to CP55,940 (1 µM).

T2 sequence (Q9Y2T6 whole entry): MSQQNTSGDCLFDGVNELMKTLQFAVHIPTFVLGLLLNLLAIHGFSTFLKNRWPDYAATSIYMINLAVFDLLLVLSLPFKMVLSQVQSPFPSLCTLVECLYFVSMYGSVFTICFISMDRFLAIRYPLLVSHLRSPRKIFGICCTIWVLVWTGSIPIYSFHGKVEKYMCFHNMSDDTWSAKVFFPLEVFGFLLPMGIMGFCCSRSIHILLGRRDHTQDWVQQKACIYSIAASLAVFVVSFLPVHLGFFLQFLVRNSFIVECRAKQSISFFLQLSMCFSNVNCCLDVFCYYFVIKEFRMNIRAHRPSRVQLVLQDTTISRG
T3 sequence (P34972 whole entry): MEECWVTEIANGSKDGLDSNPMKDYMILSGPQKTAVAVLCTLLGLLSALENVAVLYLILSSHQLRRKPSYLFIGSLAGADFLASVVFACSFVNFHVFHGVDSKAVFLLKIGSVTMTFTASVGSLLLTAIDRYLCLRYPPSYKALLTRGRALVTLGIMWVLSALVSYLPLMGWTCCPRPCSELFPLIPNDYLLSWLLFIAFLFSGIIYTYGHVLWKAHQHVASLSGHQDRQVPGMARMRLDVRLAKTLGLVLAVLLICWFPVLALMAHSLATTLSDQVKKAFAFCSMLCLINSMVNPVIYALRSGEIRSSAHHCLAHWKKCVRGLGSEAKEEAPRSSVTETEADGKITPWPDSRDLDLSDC
T1 sequence (P21554 whole entry): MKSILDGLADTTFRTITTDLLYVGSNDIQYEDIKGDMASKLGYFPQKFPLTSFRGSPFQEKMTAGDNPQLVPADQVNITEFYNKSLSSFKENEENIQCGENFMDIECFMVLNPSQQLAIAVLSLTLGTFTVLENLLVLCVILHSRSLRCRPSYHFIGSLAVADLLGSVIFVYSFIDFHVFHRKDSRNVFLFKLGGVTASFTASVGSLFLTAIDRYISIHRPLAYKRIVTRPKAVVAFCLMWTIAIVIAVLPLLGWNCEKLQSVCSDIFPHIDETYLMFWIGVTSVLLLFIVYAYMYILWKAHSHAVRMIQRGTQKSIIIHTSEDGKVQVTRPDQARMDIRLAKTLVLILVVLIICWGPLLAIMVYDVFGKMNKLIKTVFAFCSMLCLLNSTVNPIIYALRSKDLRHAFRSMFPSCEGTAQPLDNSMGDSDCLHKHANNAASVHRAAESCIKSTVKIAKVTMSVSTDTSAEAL

As a reminder, the Ki is the equilibrium dissociation constant of an inhibitor or competing ligand from its target. On to `O=C(Oc1cccc2cccnc12)c1cn(CC2CCCCC2)c2ccccc12` [BB-22], for which the Ki at human CB1 receptor [1] is 0.217 nM.

As usually defined, the IC50 is the midpoint of a concentration-inhibition curve. As for `CCc1ccc(C(=O)c2cn(CCCCCF)c3ccccc23)c2ccccc12` [EAM-2201], on human GPR55 [2], the IC50 was 1860 nM.

As a reminder, the EC50 is the concentration at which the effect is half-maximal. In the case of `COC(=O)[C@@H](NC(=O)c1nn(Cc2ccc(F)cc2)c2ccccc12)C(C)(C)C` [compound 12, MDMB-FUBINACA], the figures for the Ki at human CB1 receptor [3] and at human CB2 receptor [4] were 0.0985 ± 0.0291 nM and 0.13 ± 0.01 nM, respectively. Also, the EC50 on human CB1 receptor [5] was 0.0641 nM; at human CB2 receptor [6], 0.756 nM; on human GPR55 [7], over 10000 nM; on human GPR18 it was over 10000 nM; on CB1 receptor [8] (ref Banister et al. [38]) it was 3.9 nM; at CB2 receptor [9] (ref Banister et al. [38]) it was 55 nM. Besides, the IC50 on human GPR55 [7] and at human GPR18 was over 10000 nM in each case. Also, the “Human GPR55 % inhibition” value on human GPR55 [7] turned out to be 30%. Further, the “Human GPR18 % activation” value at human GPR18 (agonist mode) was 18%. The “Human GPR18 % inhibition” value on human GPR18 (antagonist mode) amounted to 31%. In addition, the hypothermal response entry in the assay on rats was “highest hypothermal response”.

On to `CC(C)[C@H](NC(=O)c1nn(CC2CCCCC2)c2ccccc12)C(N)=O` [compound 20], for which the Ki on human CB1 receptor [3] is 1.72 ± 0.14 nM; at human CB2 receptor [4] it was 1.91 ± 0.2 nM; at CB1 receptor [10] it was 0.78 nM; at CB2 receptor [11], 0.45 nM. The EC50 at human GPR55 [7] and at human GPR18 was over 10000 nM throughout. Moreover, the IC50 on human GPR55 [7] and at human GPR18 was over 10000 nM each time. At human GPR55 [7] (agonist mode), the “Human GPR55 % activation” value was 8%. In addition, at human GPR18 (agonist mode), the “Human GPR18 % activation” value stood at 13%. On human GPR18 (antagonist mode), the “Human GPR18 % inhibition” value worked out at 11%.

For `CC(C)(NC(=O)c1cn(CCCCCF)c2ccccc12)c1ccccc1` [compound 32, 5F-Cumyl-PICA], the figures for the inhibition constant Ki at human CB1 receptor [3] and on human CB2 receptor [4] were 1.37 ± 0.26 nM and 29.1 ± 2.4 nM, respectively. The EC50 on human GPR55 [7] is over 10000 nM; on human GPR18, over 10000 nM; at CB1 receptor [8] (ref Longworth et al. [51]), 2.8 nM; at CB2 receptor [9] (ref Longworth et al. [51]), 39.6 nM; at CB1 receptor [12], under 0.1 nM; on CB2 receptor [13], 0.37 nM. The half-maximal inhibitory concentration (IC50) at human GPR55 [7] and on human GPR18 was over 10000 nM each time. Further, the “Human GPR55 % activation” value at human GPR55 [7] (agonist mode) was 14%. On human GPR18 (agonist mode), the “Human GPR18 % activation” value amounted to 16%.

As to `CC(C)(NC(=O)c1nn(CC2CCOCC2)c2ccccc12)c1ccccc1` [compound 33], the results for the Ki on human CB1 receptor [3] and at human CB2 receptor [4] were 1.23 ± 0.2 nM and 1.38 ± 0.86 nM, respectively. Further, the half-maximal effective concentration (EC50) at human GPR55 [7] was over 10000 nM; at human GPR18 it was over 10000 nM; on CB1 receptor [12] it was 0.1 nM; on CB2 receptor [13], 0.59 nM. For the same compound, the IC50 at human GPR55 [7] and at human GPR18 was over 10000 nM throughout. Besides, the “Human GPR55 % activation” value at human GPR55 [7] (agonist mode) was 11%. Besides, at human GPR55 [7], the “Human GPR55 % inhibition” value was determined as 7%. In addition, the “Human GPR18 % activation” value on human GPR18 (agonist mode) is given as 11%. The “Human GPR18 % inhibition” value on human GPR18 (antagonist mode) came out at 9%.

Regarding `O=C(c1cccc2ccccc12)c1nc2ccccc2n1CCCCCF` [compound 42, FUBIMINA], the Ki at human CB1 receptor [3] was 502 ± 181 nM; at human CB2 receptor [4], 99 ± 28.4 nM; on CB1 receptor [10], 296 nM; on CB2 receptor [11], 23.5 nM. The “CB1 receptor activation in cAMP accumulation assay (in words)” value at human CB1 receptor [5] (setting [15]) is listed as “partial activation”. The “CB2 receptor activation in cAMP accumulation assay (in words)” value at human CB2 receptor [6] (setting [15]) was “partial activation”. Moreover, the “Human GPR55 % activation” value at human GPR55 [7] (agonist mode) is listed as 16%. The EC50 at human GPR55 [7] (agonist mode, read-out: Human GPR55 EC50) is over 10000 nM; at human GPR18 (agonist mode, read-out: Human GPR18 EC50), over 10000 nM; in assay [14] it was 2470 nM. Also, the “Human GPR55 % inhibition” value at human GPR55 [7] is reported as 44%. Besides, the IC50 on human GPR55 [7] (antagonist mode versus lysophosphatidylinositol (LPI, 1 µM), read-out: Human GPR55 IC50) is over 10000 nM; on human GPR18 (antagonist mode, read-out: Human GPR18 IC50), over 10000 nM. For the same compound, at human GPR18 (agonist mode), the “Human GPR18 % activation” value is listed as 42%. The “Human GPR18 % inhibition” value on human GPR18 (antagonist mode) turned out to be 14%.
